Assay results as given in US20260284074A1, “ENT1 Inhibitors in Combination with Checkpoint Inhibitors” (iTeos Belgium SA, priority 2023, published 2026).

What was measured:
human T cells = experiment: [3H]adenosine uptake in activated human T cells; type: cell-based; settings: Homo sapiens, T-cell; T cells activated 2 days in presence of compound, washed, [3H]adenosine uptake; read-out: IC50, inhibition of uptake of adenosine into human T cells
Text: Applicant observed that activated human T cells took up [3H]adenosine, and this uptake was reduced in the presence of the selective ENT1 inhibitor dilazep, confirming that ENT1 is the dominant transporter involved in adenosine uptake in T cells.
Human T cells were activated for 2 days in the presence of Compound 1 or dilazep. The cells were then washed and used in a [^3H]adenosine uptake experiment. […] (See FIG. 27A.)

MDA-MB-231 cells = experiment: MDA-MB-231 subcutaneous tumor model in humanized NCG mice; type: in vivo, mouse; settings: day 51; Compound 1 30 mg/kg i.p. twice a day; nivolumab 10 mg/kg i.p. every 5 days
Protocol: The anti-tumor therapeutic efficacy of Compound 1 monotherapy, nivolumab monotherapy, and Compound 1-nivolumab combination therapy was assessed in ‘humanized’ mice with subcutaneous tumors resulting from the subcutaneous injection of MDA-MB-231 cells, a human triple-negative breast cancer cell line.
Human cell line xenograft experiments were performed at Transcure (France) and all associated animal procedures were reviewed and approved by the local ethics committee. The experiment was carried out with the NOD-Prkdc^em26cd52Il2rg^em26cd22/NjuCrl immunodeficient mouse strain (NCG from Charles River Laboratories, Wilmington, MA, USA). Four-week-old immunodeficient NCG mice were engrafted with cord-blood-derived human CD34^+ hematopoietic stem and progenitor cells (French Blood Institute, Paris, France) 2 days after chemical myeloablative treatment. Fourteen weeks after cell injection, engraftment level was monitored with the analysis of human CD45^+ cells among total blood leukocytes by flow cytometry (Attune, Life Technologies/Thermo Fisher Scientific, Waltham, MA, USA). […]
All the animals used were monitored daily, checking their clinical signs of distress and body weight and tumors were measured three times a week using an electronic caliper. The tumor volume was determined by applying the formula Length×(Width)^2×0.5. […]

COc1cc(C(=O)O[C@@H]2CCCOc3cc(cc(OC)c3OC)C(=O)NCCCN3CCCN(CC2)CC3)cc(OC)c1OC [Compound 1, (12R)-7^4,7^5-dimethoxy-6-oxo-8-oxa-5-aza-1(1,4)-diazepana-7(1,3)-benzenacyclotetradecaphane-12-yl 3,4,5-trimethoxybenzoate]
IC50 (human T cells): 0.2 nM | Tumor volume compared with vehicle group (MDA-MB-231 cells): not statistically significantly different
